The values below are quoted from earlier work in US11234933B1, “Surface-modified emulsomes for intranasal delivery of drugs” (King Abdulaziz University, priority 2020, dated 2022).

For this data set the following is noted: oral route, first pass.

Regarding `CCOC(=O)C1=C[C@]2(CC)CCCN3CCc4c(n1c1ccccc41)[C@@H]32` [VIN, Vinpocetine], the VIN hepatic metabolism is listed as about 75%.
